Structures can show the parent of a compound that is named as a salt. Where two headings read alike, the source gives them in different places.
Experiments:
[1] = system: Ulcerative Proctosigmoiditis/Ulcerative Proctitis (UP/UPS); test: Phase 2 clinical trial CTIX-BRI-206 in Ulcerative Proctitis/Ulcerative Proctosigmoiditis; format: in vivo, human
Method: In a Phase 2 study (CTIX-BRI-206), clinical remission (with Endoscopic response) was achieved after 6 weeks of treatment in >50% subjects in each treatment cohort (50 mg, 100 mg, and 200 mg brilacidin, as daily retention enema) (FIG. 21, Panel A). Inflammatory biomarkers IL-1β and IL-6 were reduced in colonic tissue biopsies collected at Week 6 (Day 42) compared to those biopsies collected at baseline (FIG. 21, Panel B).

[2] = system: LPS-induced MMP-9 release, NR8383 cells; test: LPS-induced MMP-9 release in NR8383 rat macrophages (ELISA); format: cell-based
Method: Method for FIG. 9. […] After 8 hours, supernatants were collected for MMP9 measurement by ELISA using immunoassay kit (R&D Systems, Minneapolis, MN) according to manufacturer's instructions.
The MMP-9 inhibition assay was performed according to the Method described for FIG. 9.
(§1) PDE4 and PDE3 inhibition results in subsequent down-regulation of pro-inflammatory cytokines/chemokines and its regulators, and experiments were conducted to confirm such down-regulation by brilacidin in ex vivo cell-based assays. In these assays, cells were exposed to brilacidin 45 minutes before an 8-hour lipopolysaccharide (LPS) stimulation in the presence of brilacidin; cytokine/enzyme concentrations were determined by ELISA using a standard immunoassay kit.

[3] = Plasma pharmacokinetics after IV or PO administration (Study 16009-12001); format: in vivo, male Balb/c mice; conditions: male mice; for Cmax: read-out: Cmax (peak concentration)
Description: Method for FIG. 11. […] The test article, PMX-30063, was corrected for salt form but no adjustment was made for purity. […] The resulting formulation was clear colorless solution (pH 7) and was stored at room temperature until administered. The formulated solution was clear and colorless until dosing was completed.
A total of 60 male Balb/c mice, approximately 4-7 weeks of age at receipt with body weight of 18.0 g to 21.9 g were used in this study.
Three mice in each group were used for blood at each time point at post-dose at 5 minutes, 15 minutes, 30 minutes, 1, 2, 4, 8, and 24 hours for Groups 1-2. Blood samples (at least 300 μL/sample) were collected via cardiac puncture after euthanasia by carbon dioxide inhalation at appropriate time points. Samples were placed in tubes containing K2-EDTA, and then centrifuged at approximately 8,000 rpm for 6 minutes at 4° C. and the resulting plasma were separated and stored frozen at approximately −80° C.
The pharmacokinetic (PK) analysis were conducted by Medicilon Preclinical Research (Shanghai) LLC. The PK parameters were determined by the Study Director for the test article from mean concentration-time data in the test species. A non-compartmental module of WinNonlin™ Professional 5.2 was used to calculate parameters. Any BLQs (LLOQ=2.5 ng/mL for plasma and LLOQ=500 ng/g for small intestine) were replaced with a value of “0”, and the mean value and its standard deviation (SD) are calculated with these replaced values.
Plasma samples (50 μL) were transferred to centrifuge tube, then 250 μL IS solution (50 ng/mL Carvedilol) was added to it. After vortexing for 1 minute and centrifuging for 5 minutes at 15,000 rpm, 100 μL aliquots of supernatant were transferred to glass autosampler vials.

[4] = system: LPS-induced CINC-3 release, NR8383 cells; test: LPS-induced CINC-3 (CXCL2) release in NR8383 rat alveolar macrophages (ELISA); format: cell-based; conditions: Macrophage, 8-hour brilacidin and LPS exposure, read-out: IC50, inhibition of LPS-induced CINC-3 release
Method: To examine the effect of brilacidin on production in cells of cytokine-induced neutrophil chemoattractant-3 (CINC-3; CXCL2), rat alveolar macrophage (NR8383) cells were pretreated with a range of brilacidin concentrations for 45 minutes, followed by treatment with 1 μg/ml LPS from E. coli (Sigma, St. Louis, MO) for 8 hours in the presence of brilacidin. After 8 hours, supernatants were collected for CINC-3 measurement by ELISA. CINC-3 was measured using an immunoassay kit according to manufacturer's instructions (R&D Systems, Minneapolis, MN).
as §1

DSS-induced colitis = test: Dextran sulfate sodium (DSS)-induced acute colitis model; format: in vivo, male C57BL/6 mice
Method: The efficacy of brilacidin administered was investigated in a murine model of chemically-induced acute colitis using dextran sulfate sodium (DSS). This was a different in vivo model of IBD to the testing performed in Examples 16 and 17 (where mucosal injury was induced by using acetic acid). DSS-induced colitis in mice is characterized by weight loss, bloody diarrhea, intestinal ulcerations and infiltrations with granulocytes. In mice, DSS was administered from Day 0 to Day 11, as a 5% (w/v) DSS solution in the drinking water of male C57BL/6 mice (Kim J J, et al., J. Vis. Exp., 2012, 60, 3678), to induce severe murine colitis. On Days 7-11, test compound brilacidin (400 mg/kg) or positive control 5-ASA (50 mg/kg) or water (negative control) were administered as a solution, per rectum. On Days 6, 10 and 11, rectal bleeding was assessed using a Hemoccult® kit and stool consistency was visually assessed; severity of symptoms were scored on a scale of 0 (normal) to 4 (severe). Level of pro-inflammatory cytokines interleukin (IL)-6 and IL-1β in distal colon tissue were determined from excised colons using conventional ELISA methods.

[5] = by Day 11, brilacidin 400 mg/kg per rectum Days 7-11, p<0.001
[6] = end of study, brilacidin 400 mg/kg or 5-ASA 50 mg/kg per rectum Days 7-11

Q: Which “IL-1β in colonic tissue biopsies vs baseline (in words)” value ([1]; Week 6 (Day 42)) does the source give for `N=C(N)NCCCCC(=O)Nc1cc(C(F)(F)F)cc(NC(=O)c2cc(C(=O)Nc3cc(C(F)(F)F)cc(NC(=O)CCCCNC(=N)N)c3O[C@@H]3CCNC3)ncn2)c1O[C@@H]1CCNC1` [PMX-30063, N^4,N^6-bis(2-((R)-pyrrolidin-3-yloxy)-3-((4-carbamoylbutyl)guanidine)-5-(trifluoromethyl)phenyl)pyrimidine-4,6-dicarboxamide tetrahydrochloride salt] here?
A: reduced

Q: What about the “IL-6 in colonic tissue biopsies vs baseline (in words)” value ([1]; Week 6 (Day 42)) of the same molecule?
A: reduced

Q: What about the “subjects achieving clinical remission (with Endoscopic response)” value ([1]; after 6 weeks, each cohort (50 mg, 100 mg, 200 mg, daily retention enema)) of the same molecule?
A: > 50%

Q: What about the IC50 ([2]; Rattus norvegicus, Macrophage, NR8383 cells, ELISA, 45 min pretreatment, 8-hour LPS, read-out: IC50, inhibition of LPS-induced MMP-9 release) of the same molecule?
A: 2300 nM

Q: What about the “decrease in MMP-9 levels” value ([2]; at 12.5 μM, NR8383, LPS 1 μg/ml 8 h) of the same molecule?
A: 50%

Q: What about the AUC(0-inf) ([3]; Balb/c, mouse, IV 5 mg/kg) of the same molecule?
A: 97800 ng·h/mL

Q: What about the AUC(0-t) ([3]; Balb/c, mouse, IV 5 mg/kg) of the same molecule?
A: 97700 ng·h/mL

Q: And the Tmax ([3]; Balb/c, mouse, IV 5 mg/kg)?
A: 0.083 h

Q: And the clearance ([3]; Balb/c, mouse, IV 5 mg/kg)?
A: 0.852 mL/min/kg

Q: And the half-life ([3]; Balb/c, mouse, IV 5 mg/kg)?
A: 2.76 h

Q: And the Cmax ([3]; Balb/c, mouse, IV 5 mg/kg)?
A: 48400 ng/mL

Q: And the Vd ([3]; Balb/c, mouse, IV 5 mg/kg, read-out: Vz)?
A: 0.204 L/kg

Q: What about the AUC(0-inf) ([3]; Balb/c, mouse, PO 10 mg/kg) of the same molecule?
A: 113 ng·h/mL

Q: And the AUC(0-t) ([3]; Balb/c, mouse, PO 10 mg/kg)?
A: 111 ng·h/mL

Q: What about the Tmax ([3]; Balb/c, mouse, PO 10 mg/kg) of the same molecule?
A: 2 h

Q: And the half-life ([3]; Balb/c, mouse, PO 10 mg/kg)?
A: 1.26 h

Q: And the Cmax ([3]; Balb/c, mouse, PO 10 mg/kg)?
A: 33.7 ± 8.56 ng/mL

Q: What about the “MRT(0-∞)” value ([3]; IV 5 mg/kg) of the same molecule?
A: 2.86 H

Q: What about the “F*” value ([3]; PO 10 mg/kg vs IV 5 mg/kg) of the same molecule?
A: 0.0579%

Q: And the “MRT(0-∞)” value ([3]; PO 10 mg/kg)?
A: 2.68 H

Q: And the IC50 [4]?
A: 425 nM

Q: And the “rectal bleeding score compared to DSS-treated control (in words)” value (DSS-induced colitis; [5])?
A: significant decrease

Q: And the “stool consistency compared to DSS-treated control (in words)” value (DSS-induced colitis; [5])?
A: significantly more firm

Q: And the “mean reduction in IL-1β in distal colon tissue compared to DSS-treated control group” value (DSS-induced colitis; [6])?
A: 27%

Q: What about the “mean reduction in IL-6 in distal colon tissue compared to DSS-treated control group” value (DSS-induced colitis; [6]) of the same molecule?
A: 40%
